Source: patent US20200397965A1, “METHOD AND SYSTEM FOR […] MONOXIDE (CO) ADMINISTRATION TO EX-VIVO FLUIDS” (Julius-Maximilians-Universitaet Wuerzburg, priority 2018, published 2020)

Test: ICP-MS analysis for molybdenum in harvested organs and blood after ECCORS CO delivery in veno-arterial ECMO
Format: in vivo, landrace-hybrid pigs
Conditions: swine on ECMO with ECCORS, Beck1 injected into FeCl3 secondary circuit behind silicone membrane
Procedure: After obtaining consent by Regierungspraesidium Freiburg, seven landrace-hybrid pigs (weight 52±2 kg) were anesthetized (continuous infusion of propofol, fentanyl and cisatracurium), mechanically ventilated and monitored with electrocardiogram, pulse-oximetry and invasive blood pressure measurement by cannulating the carotid and pulmonary artery. Instrumentation with veno-arterial ECMO (extracorporeal membrane oxygenation) was carried out in a sterile technique: Venous access was achieved by ultrasound-guided cannulation of femoral vein (21 French HLS cannula, Maquet, Rastatt, Germany), while arterial inflow into the femoral artery was established using 17 French HLS cannula from Maquet, (Rastatt, Germany). The ECMO circuit (primary circuit) was then set-up using a customary centrifugal pump head (Revolution 5, Sorin, Rome, Italy), an oxygenator (EOS ECMO, Sorin, Rome, Italy), and 3/8” tubing for interconnection. The system was regulated using a modified console (core element: SCP-Console, Sorin, Rome, Italy).
The ECCORS was then integrated in line with the oxygenator into the primary ECMO circuit. A commercially available PDMSXA-1.0 silicone membrane module from PermSelect (AnnArbor, II) served as core functional element of the ECCORS. […]
Tissue was analyzed for CO effects and residual CORM constituents in the harvest organs and blood using ICP-MS analysis for molybdenum. […]

For Mo(CO)3(CNCH2COOH)3 [CORM], the “toxic components of CORM / transition metals found in tissue or blood” value was “no transition metals can be found in the tissue or blood”.
